Patent US20230011869A1 (Hoffmann-La Roche Inc., priority 2018, published 2023)
Where a name gives a salt, the structure may show the parent alone. Read-outs that look alike come from different tables or passages of the source.

Tested on: Acinetobacter baumannii ATCC17978
Assay: Antimicrobial susceptibility testing: 90% growth inhibitory concentration (IC90) determination, Iso-Sensitest broth
Type: cell-based
Method: Antimicrobial Susceptibility Testing:
90% Growth Inhibitory Concentration (IC90) Determination
The in vitro antimicrobial activity of the compounds was determined according to the following procedure:
The assay used a 10-points Iso-Sensitest broth medium to measure quantitatively the in vitro activity of the compounds against Acinetobacter baumannii ATCC17978 and Acinetobacter baumannii ATCC17961.
Microtiter plates were incubated at 35±2° C.
Bacterial cell growth was determined with the measurement of optical density at λ=600 nm each 20 minutes over a time course of 16 h. Growth inhibition was calculated during the logarithmic growth of the bacterial cells with determination of the concentration inhibiting 50% (IC50) and 90% (IC90) of the growth.

[1] = 90% growth inhibitory concentration, Acinetobacter baumannii ATCC17978, Iso-Sensitest broth, OD 600 nm over 16 h, read-out: ATCC17978 IC90
[2] = Acinetobacter baumannii, ATCC17978, 16 h, read-out: ATCC17978 IC90, 90% growth inhibitory concentration, Acinetobacter baumannii ATCC17978, Iso-Sensitest broth, OD 600 nm over 16 h

| IC90 [1] | Structure (SMILES) | also measured |
| --- | --- | --- |
| 170 nM | COc1ccc(-c2cnc3c(Nc4ccc(C(=O)N5CCC(CN)CC5)c(C)c4)nccn23)c(F)c1F [Example 28, (4-(aminomethyl)piperidin-1-yl)(4-((3-(2,3-difluoro-4-methoxyphenyl)imidazo[1,2-a]pyrazin-8-yl)amino)-2-methylphenyl)methanone] |  |
| 120 nM | COc1ccc(-c2cnc3c(Nc4ccc(C(=O)N5CCC(CN(C)C)CC5)c(C)c4)nccn23)c(F)c1F [Example 29, (4-((3-(2,3-difluoro-4-methoxyphenyl)imidazo[1,2-a]pyrazin-8-yl)amino)-2-methylphenyl)(4-((dimethylamino)methyl)piperidin-1-yl)methanone] |  |
| 130 nM | CCc1cc(Nc2nccn3c(-c4ccc(OCC#N)c(F)c4F)cnc23)ccc1C(=O)N1CCN(CCN(C)C)CC1 [Example 30, 2-(4-(8-((4-(4-(2-(dimethylamino)ethyl)piperazine-1-carbonyl)-3-ethylphenyl)amino)imidazo[1,2-a]pyrazin-3-yl)-2,3-difluorophenoxy)acetonitrile] |  |
| 120 nM | Cc1cc(Nc2nccn3c(-c4ccc(OCC#N)c(F)c4F)cnc23)ccc1C(=O)N1CCC(CN)CC1 [Example 31, 2-[4-[8-[4-[4-(aminomethyl)piperidine-1-carbonyl]-3-methyl-anilino]imidazo[1,2-a]pyrazin-3-yl]-2,3-difluoro-phenoxy]acetonitrile;2,2,2-trifluoroacetic acid] |  |
| 210 nM | Cc1cc(Nc2nccn3c(-c4cc(F)c(OCC#N)cc4Cl)cnc23)ccc1C(=O)N1CCC(C(=O)N2CCNC(CO)C2)CC1 (stereo not shown) [Example 32, 2-[5-chloro-2-fluoro-4-[8-[4-[4-[3-(hydroxymethyl)piperazine-1-carbonyl]piperidine-1-carbonyl]-3-methyl-anilino]imidazo[1,2-a]pyrazin-3-yl]phenoxy]acetonitrile;2,2,2-trifluoroacetic acid] |  |
| 230 nM | Cc1cc(Nc2nccn3c(-c4ccc(OC(F)F)cc4)cnc23)ccc1C(=O)N1CCC(C(=O)N2C[C@H](CO)[C@@H](O)[C@H](O)C2)CC1 [Example 33, (1-(4-((3-(4-(difluoromethoxy)phenyl)imidazo[1,2-a]pyrazin-8-yl)amino)-2-methylbenzoyl)piperidin-4-yl)((3R,4R,5R)-3,4-dihydroxy-5-(hydroxymethyl)piperidin-1-yl)methanone] |  |
|  | COc1ccc(-c2cnc3c(Nc4ccc(C(=O)N5CCC(CN)CC5)c(C)c4)nccn23)cc1F [Example 34, (4-(aminomethyl)piperidin-1-yl)(4-((3-(3-fluoro-4-methoxyphenyl)imidazo[1,2-a]pyrazin-8-yl)amino)-2-methylphenyl)methanone hydrochloride] | IC90 [2]: 190 nM |
| 250 nM | COc1ccc(-c2cnc3c(Nc4ccc(C(=O)N5CCN(CCN(C)C)CC5)c(C)c4)nccn23)cc1F [Example 35, (4-(2-(dimethylamino)ethyl)piperazin-1-yl)(4-((3-(3-fluoro-4-methoxyphenyl)imidazo[1,2-a]pyrazin-8-yl)amino)-2-methylphenyl)methanone] |  |
| 250 nM | Cc1cc(Nc2nccn3c(-c4ccc(OC(F)F)cc4)cnc23)ccc1C(=O)N1CCC(N2CCN(C)CC2)CC1 [Example 36, (4-((3-(4-(difluoromethoxy)phenyl)imidazo[1,2-a]pyrazin-8-yl)amino)-2-methylphenyl)(4-(4-methylpiperazin-1-yl)piperidin-1-yl)methanone] |  |
|  | Cc1cc(Nc2nccn3c(-c4ccc(OC(F)F)cc4)cnc23)ccc1C(=O)N1CCN(C(=O)CN)CC1 [Example 37, 2-amino-1-(4-(4-((3-(4-(difluoromethoxy)phenyl)imidazo[1,2-a]pyrazin-8-yl)amino)-2-methylbenzoyl)piperazin-1-yl)ethanone hydrochloride] | IC90 (read-out: ATCC17978 IC90, 90% growth inhibitory concentration, Acinetobacter baumannii ATCC17978, Iso-Sensitest broth, OD 600 nm over 16 h, hydrochloride): 180 nM |
| 220 nM | Cc1cc(Nc2nccn3c(-c4ccc(OC(F)F)cc4)cnc23)ccc1C(=O)N1CCN(C(=O)CN(C)C)CC1 [Example 38, 1-(4-(4-((3-(4-(difluoromethoxy)phenyl)imidazo[1,2-a]pyrazin-8-yl)amino)-2-methylbenzoyl)piperazin-1-yl)-2-(dimethylamino)ethanone] |  |
| 260 nM | COc1ccc(-c2cnc3c(Nc4ccc(C(=O)N5CCC(C(=O)N6CCOC(CN)C6)CC5)c(C)c4)nccn23)cc1F (stereo not shown) [Example 39, (4-(2-(aminomethyl)morpholine-4-carbonyl)piperidin-1-yl)(4-((3-(3-fluoro-4-methoxyphenyl)imidazo[1,2-a]pyrazin-8-yl)amino)-2-methylphenyl)methanone hydrochloride] |  |
| 280 nM | CNCCNC(=O)C1CCN(C(=O)c2ccc(Nc3nccn4c(-c5ccc(OC)c(F)c5)cnc34)cc2C)CC1 [Example 40, 1-(4-((3-(3-fluoro-4-methoxyphenyl)imidazo[1,2-a]pyrazin-8-yl)amino)-2-methylbenzoyl)-N-(2-(methylamino)ethyl)piperidine-4-carboxamide hydrochloride] |  |
| 110 nM | COc1ccc(-c2cnc3c(Nc4ccc(C(=O)N5CCN(c6nccn6C)CC5)c(C)c4)nccn23)cc1F [Example 41, (4-((3-(3-fluoro-4-methoxyphenyl)imidazo[1,2-a]pyrazin-8-yl)amino)-2-methylphenyl)(4-(1-methyl-1H-imidazol-2-yl)piperazin-1-yl)methanone] |  |
| 270 nM | COc1ccc(-c2cnc3c(Nc4ccc(C(=O)N5CCNCC5CO)c(C)c4)nccn23)cc1F (stereo not shown) [Example 42, (4-((3-(3-fluoro-4-methoxyphenyl)imidazo[1,2-a]pyrazin-8-yl)amino)-2-methylphenyl)(2-(hydroxymethyl)piperazin-1-yl)methanone] |  |
|  | Cc1cc(Nc2nccn3c(-c4ccc(OC(F)F)cc4)cnc23)ccc1C(=O)N1CCC(C(=O)N2CCOC(CN)C2)CC1 (stereo not shown) [Example 43, (4-(2-(aminomethyl)morpholine-4-carbonyl)piperidin-1-yl)(4-((3-(4-(difluoromethoxy)phenyl)imidazo[1,2-a]pyrazin-8-yl)amino)-2-methylphenyl)methanone hydrochloride] | IC90 [2]: 220 nM |
| 280 nM | Cc1cc(Nc2nccn3c(-c4ccc(OC(F)F)cc4)cnc23)ccc1C(=O)N1CCC(C(=O)N2CC3(C2)CN(C2CC2)C3)CC1 [Example 44, (4-(6-cyclopropyl-2,6-diazaspiro[3.3]heptane-2-carbonyl)piperidin-1-yl)(4-((3-(4-(difluoromethoxy)phenyl)imidazo[1,2-a]pyrazin-8-yl)amino)-2-methylphenyl)methanone] |  |
|  | Cc1cc(Nc2nccn3c(-c4ccc(OC(F)F)cc4)cnc23)ccc1C(=O)N1CCC(N2CCNCC2)CC1 [Example 45, (4-((3-(4-(difluoromethoxy)phenyl)imidazo[1,2-a]pyrazin-8-yl)amino)-2-methylphenyl)(4-(piperazin-1-yl)piperidin-1-yl)methanone hydrochloride] | IC90 [2]: 190 nM |
| 200 nM | COc1ccc(-c2cnc3c(Nc4ccc(C(=O)N5CCC(C(=O)NCCCN(C)C)CC5)c(C)c4)nccn23)cc1F [Example 46, N-[3-(dimethylamino)propyl]-1-[4-[[3-(3-fluoro-4-methoxyphenyl)imidazo[1,2-a]pyrazin-8-yl]amino]-2-methylbenzoyl]piperidine-4-carboxamide] |  |
| 140 nM | COc1ccc(-c2cnc3c(Nc4ccc(C(=O)N5CCC(C(=O)NCCN(C)C)CC5)c(C)c4)nccn23)cc1F [Example 47, N-[2-(dimethylamino)ethyl]-1-[4-[[3-(3-fluoro-4-methoxyphenyl)imidazo[1,2-a]pyrazin-8-yl]amino]-2-methylbenzoyl]piperidine-4-carboxamide] |  |
|  | CNCCCNC(=O)C1CCN(C(=O)c2ccc(Nc3nccn4c(-c5ccc(OC)c(F)c5)cnc34)cc2C)CC1 [Example 49, 1-(4-((3-(3-fluoro-4-methoxyphenyl)imidazo[1,2-a]pyrazin-8-yl)amino)-2-methylbenzoyl)-N-(3-(methylamino)propyl)piperidine-4-carboxamide hydrochloride] | IC90 [2]: 270 nM |
|  | CN[C@@H]1CCN(C(=O)C2CCN(C(=O)c3ccc(Nc4nccn5c(-c6ccc(OC)c(F)c6)cnc45)cc3C)CC2)C1 [Example 50, (R)-(1-(4-((3-(3-fluoro-4-methoxyphenyl)imidazo[1,2-a]pyrazin-8-yl)amino)-2-methylbenzoyl)piperidin-4-yl)(3-(methylamino)pyrrolidin-1-yl)methanone hydrochloride] | IC90 [2]: 290 nM |
|  | CNCCCCNC(=O)C1CCN(C(=O)c2ccc(Nc3nccn4c(-c5ccc(OC)c(F)c5)cnc34)cc2C)CC1 [Example 51, 1-(4-((3-(3-fluoro-4-methoxyphenyl)imidazo[1,2-a]pyrazin-8-yl)amino)-2-methylbenzoyl)-N-(4-(methylamino)butyl)piperidine-4-carboxamide hydrochloride] | IC90 [2]: 290 nM |
|  | COc1ccc(-c2cnc3c(Nc4ccc(C(=O)N5CCC(C(=O)NCCCN)CC5)c(C)c4)nccn23)cc1F [Example 52, N-(3-aminopropyl)-1-(4-((3-(3-fluoro-4-methoxyphenyl)imidazo[1,2-a]pyrazin-8-yl)amino)-2-methylbenzoyl)piperidine-4-carboxamide hydrochloride] | IC90 [2]: 230 nM |

| Structure (SMILES) | IC90 [1] | also measured |
| --- | --- | --- |
| COc1ccc(-c2cnc3c(Nc4ccc(C(=O)N5CCC(C(=O)N6CCNC(C(=O)O)C6)CC5)c(C)c4)nccn23)cc1F (stereo not shown) [Example 48, 4-[1-[4-[[3-(3-fluoro-4-methoxyphenyl)imidazo[1,2-a]pyrazin-8-yl]amino]-2-methylbenzoyl]piperidine-4-carbonyl]piperazine-2-carboxylic acid;hydrochloride] | 930 nM |  |
